Test results taken from the OligoGym collection.
HELM strings list units from the 5' end as sugar, base in round brackets, then linkage (d deoxyribose, r ribose, m 2'-O-methyl, p phosphodiester). Strings are as the collection lists them; they lack the last nucleoside at the 3' end of the tested compound. [moe] = 2'-O-(2-methoxyethyl) (MOE); [sp] = phosphorothioate linkage; [m5C] = 5-methylcytosine

Target: ATXN2
Assay: mouse, dose not given
Conditions: ASO

Substance | 3 h FOB score
RNA1{[moe]([m5C])[sp].[moe](T)[sp].[moe](G)[sp].[moe](G)[sp].[moe](T)[sp].d(A)[sp].d([m5C])[sp].d(A)[sp].d(G)[sp].d(T)[sp].d(T)[sp].d(G)[sp].d([m5C])[sp].d(T)[sp].d(G)[sp].[moe]([m5C])[sp].[moe](T)[sp].[moe](G)[sp].[moe]([m5C])}$$$$ (last 3' nucleoside missing) | 7 score 0-7
RNA1{[moe]([m5C])[sp].[moe](T)[sp].[moe]([m5C])[sp].[moe](T)[sp].[moe]([m5C])[sp].d([m5C])[sp].d(A)[sp].d(T)[sp].d(T)[sp].d(A)[sp].d(T)[sp].d(T)[sp].d(T)[sp].d([m5C])[sp].d(T)[sp].[moe](T)[sp].[moe]([m5C])[sp].[moe](A)[sp].[moe]([m5C])}$$$$ (last 3' nucleoside missing) | 7 score 0-7
RNA1{[moe]([m5C])[sp].[moe](T)p.[moe](A)p.[moe](A)p.[moe]([m5C])[sp].d(T)[sp].d(G)[sp].d(G)[sp].d(T)[sp].d(T)[sp].d(T)[sp].d(G)[sp].d([m5C])[sp].[moe]([m5C])p.[moe]([m5C])p.[moe](T)[sp].[moe](T)}$$$$ (last 3' nucleoside missing) | 7 score 0-7
RNA1{[moe]([m5C])[sp].[moe](T)p.[moe](A)p.[moe](G)p.[moe](G)p.d(T)[sp].d(G)[sp].d(A)[sp].d(T)[sp].d(G)[sp].d(T)[sp].d(T)[sp].d(T)[sp].d([m5C])[sp].d(A)[sp].[moe](T)p.[moe](T)p.[moe](G)[sp].[moe](G)}$$$$ (last 3' nucleoside missing) | 7 score 0-7
RNA1{[moe]([m5C])[sp].[moe](T)p.[moe](A)p.[moe](T)p.[moe](T)[sp].d(T)[sp].d([m5C])[sp].d(T)[sp].d(T)[sp].d(T)[sp].d(G)[sp].d(T)[sp].d([m5C])[sp].[moe]([m5C])p.[moe](A)p.[moe](G)[sp].[moe](G)}$$$$ (last 3' nucleoside missing) | 3.25 score 0-7
RNA1{[moe]([m5C])[sp].[moe](T)p.[moe](A)p.[moe](T)p.[moe]([m5C])[sp].d(A)[sp].d(T)[sp].d([m5C])[sp].d(A)[sp].d(T)[sp].d(T)[sp].d(T)[sp].d(T)[sp].[moe]([m5C])p.[moe]([m5C])p.[moe](A)[sp].[moe](G)}$$$$ (last 3' nucleoside missing) | 1 score 0-7
RNA1{[moe]([m5C])[sp].[moe](T)p.[moe](A)p.[moe](T)p.[moe]([m5C])p.d(A)[sp].d(T)[sp].d([m5C])[sp].d(A)[sp].d(T)[sp].d(T)[sp].d(T)[sp].d(T)[sp].d([m5C])[sp].d([m5C])[sp].[moe](A)p.[moe](G)p.[moe](G)[sp].[moe](G)}$$$$ (last 3' nucleoside missing) | 1 score 0-7
RNA1{[moe]([m5C])[sp].[moe](T)p.[moe](G)p.[moe](G)p.[moe](A)[sp].d(T)[sp].d(T)[sp].d([m5C])[sp].d(T)[sp].d(G)[sp].d(T)[sp].d(A)[sp].d([m5C])[sp].[moe](T)p.[moe](T)p.[moe](T)[sp].[moe](T)}$$$$ (last 3' nucleoside missing) | 3.75 score 0-7
RNA1{[moe]([m5C])[sp].[moe](T)p.[moe](G)p.[moe](G)p.[moe](A)p.[moe](T)p.d(T)[sp].d([m5C])[sp].d(T)[sp].d(G)[sp].d(T)[sp].d(A)[sp].d([m5C])[sp].d(T)[sp].d(T)[sp].d(T)[sp].[moe](T)p.[moe]([m5C])[sp].[moe](T)}$$$$ (last 3' nucleoside missing) | 1 score 0-7
RNA1{[moe]([m5C])[sp].[moe](T)p.[moe](G)p.[moe](G)p.[moe](A)p.d(T)[sp].d(T)[sp].d([m5C])[sp].d(T)[sp].d(G)[sp].d(T)[sp].d(A)[sp].d([m5C])[sp].d(T)[sp].d(T)[sp].[moe](T)p.[moe](T)p.[moe]([m5C])[sp].[moe](T)}$$$$ (last 3' nucleoside missing) | 5.25 score 0-7
RNA1{[moe]([m5C])[sp].[moe](T)p.[moe](G)p.[moe](G)p.[moe](T)p.d(T)[sp].d([m5C])[sp].d([m5C])[sp].d(T)[sp].d(T)[sp].d(A)[sp].d([m5C])[sp].d(A)[sp].d(A)[sp].d(T)[sp].[moe](T)p.[moe](A)p.[moe](T)[sp].[moe]([m5C])}$$$$ (last 3' nucleoside missing) | 1 score 0-7
RNA1{[moe]([m5C])[sp].[moe](T)p.[moe](G)p.[moe](G)p.d(A)[sp].d(T)[sp].d(T)[sp].d([m5C])[sp].d(T)[sp].d(G)[sp].d(T)[sp].d(A)[sp].d([m5C])[sp].d(T)[sp].[moe](T)p.[moe](T)p.[moe](T)p.[moe]([m5C])[sp].[moe](T)}$$$$ (last 3' nucleoside missing) | 2 score 0-7
RNA1{[moe]([m5C])[sp].[moe](T)p.[moe](G)p.[moe](T)p.[moe](A)[sp].d([m5C])[sp].d(T)[sp].d(T)[sp].d(T)[sp].d(T)[sp].d([m5C])[sp].d(T)[sp].d([m5C])[sp].[moe](A)p.[moe](T)p.[moe](G)[sp].[moe](T)}$$$$ (last 3' nucleoside missing) | 3.5 score 0-7
RNA1{[moe]([m5C])[sp].[moe](T)p.[moe](G)p.[moe](T)p.[moe](A)p.d([m5C])[sp].d(T)[sp].d(T)[sp].d(T)[sp].d(T)[sp].d([m5C])[sp].d(T)[sp].d([m5C])[sp].d(A)[sp].d(T)[sp].[moe](G)p.[moe](T)p.[moe](G)[sp].[moe]([m5C])}$$$$ (last 3' nucleoside missing) | 1.25 score 0-7
RNA1{[moe]([m5C])[sp].[moe](T)p.[moe](G)p.[moe](T)p.[moe](G)p.d(A)[sp].d(G)[sp].d(T)[sp].d(T)[sp].d([m5C])[sp].d(A)[sp].d([m5C])[sp].d([m5C])[sp].d(T)[sp].d(G)[sp].[moe]([m5C])p.[moe](A)p.[moe](T)[sp].[moe]([m5C])}$$$$ (last 3' nucleoside missing) | 1 score 0-7
RNA1{[moe]([m5C])[sp].[moe](T)p.[moe](G)p.[moe](T)p.[moe](G)p.d(T)[sp].d(A)[sp].d(T)[sp].d(T)[sp].d(T)[sp].d(T)[sp].d(T)[sp].d([m5C])[sp].d(T)[sp].d(T)[sp].[moe]([m5C])p.[moe]([m5C])p.[moe](T)[sp].[moe]([m5C])}$$$$ (last 3' nucleoside missing) | 0 score 0-7
RNA1{[moe]([m5C])[sp].[moe](T)p.[moe](G)p.[moe]([m5C])p.[moe](T)[sp].d(A)[sp].d(A)[sp].d([m5C])[sp].d(T)[sp].d(G)[sp].d(G)[sp].d(T)[sp].d(T)[sp].[moe](T)p.[moe](G)p.[moe]([m5C])[sp].[moe]([m5C])}$$$$ (last 3' nucleoside missing) | 4 score 0-7
RNA1{[moe]([m5C])[sp].[moe](T)p.[moe](G)p.[moe]([m5C])p.[moe](T)p.[moe](A)p.d(A)[sp].d([m5C])[sp].d(T)[sp].d(G)[sp].d(G)[sp].d(T)[sp].d(T)[sp].d(T)[sp].d(G)[sp].d([m5C])[sp].[moe]([m5C])p.[moe]([m5C])[sp].[moe](T)}$$$$ (last 3' nucleoside missing) | 5.5 score 0-7
RNA1{[moe]([m5C])[sp].[moe](T)p.[moe](G)p.[moe]([m5C])p.[moe](T)p.d(A)[sp].d(A)[sp].d([m5C])[sp].d(T)[sp].d(G)[sp].d(G)[sp].d(T)[sp].d(T)[sp].d(T)[sp].d(G)[sp].[moe]([m5C])p.[moe]([m5C])p.[moe]([m5C])[sp].[moe](T)}$$$$ (last 3' nucleoside missing) | 6 score 0-7
RNA1{[moe]([m5C])[sp].[moe](T)p.[moe](G)p.[moe]([m5C])p.d(T)[sp].d(A)[sp].d(A)[sp].d([m5C])[sp].d(T)[sp].d(G)[sp].d(G)[sp].d(T)[sp].d(T)[sp].d(T)[sp].[moe](G)p.[moe]([m5C])p.[moe]([m5C])p.[moe]([m5C])[sp].[moe](T)}$$$$ (last 3' nucleoside missing) | 1 score 0-7
RNA1{[moe]([m5C])[sp].[moe](T)p.[moe](T)p.[moe](A)p.[moe](G)[sp].d(A)[sp].d(G)[sp].d(T)[sp].d(T)[sp].d(T)[sp].d(T)[sp].d(T)[sp].d(G)[sp].[moe]([m5C])p.[moe]([m5C])p.[moe](T)[sp].[moe](T)}$$$$ (last 3' nucleoside missing) | 6 score 0-7
RNA1{[moe]([m5C])[sp].[moe](T)p.[moe](T)p.[moe](A)p.[moe](G)p.[moe](A)p.d(G)[sp].d(T)[sp].d(T)[sp].d(T)[sp].d(T)[sp].d(T)[sp].d(G)[sp].d([m5C])[sp].d([m5C])[sp].d(T)[sp].[moe](T)p.[moe]([m5C])[sp].[moe]([m5C])}$$$$ (last 3' nucleoside missing) | 4.5 score 0-7
RNA1{[moe]([m5C])[sp].[moe](T)p.[moe](T)p.[moe](A)p.[moe](G)p.d(A)[sp].d(G)[sp].d(T)[sp].d(T)[sp].d(T)[sp].d(T)[sp].d(T)[sp].d(G)[sp].d([m5C])[sp].d([m5C])[sp].[moe](T)p.[moe](T)p.[moe]([m5C])[sp].[moe]([m5C])}$$$$ (last 3' nucleoside missing) | 4 score 0-7
RNA1{[moe]([m5C])[sp].[moe](T)p.[moe](T)p.[moe](A)p.d(G)[sp].d(A)[sp].d(G)[sp].d(T)[sp].d(T)[sp].d(T)[sp].d(T)[sp].d(T)[sp].d(G)[sp].d([m5C])[sp].[moe]([m5C])p.[moe](T)p.[moe](T)p.[moe]([m5C])[sp].[moe]([m5C])}$$$$ (last 3' nucleoside missing) | 5.5 score 0-7
RNA1{[moe]([m5C])[sp].[moe](T)p.[moe](T)p.[moe](G)p.[moe](T)p.d(A)[sp].d([m5C])[sp].d(T)[sp].d(T)[sp].d([m5C])[sp].d(A)[sp].d([m5C])[sp].d(A)[sp].d(T)[sp].d(T)[sp].[moe](T)p.[moe](G)p.[moe](G)[sp].[moe](A)}$$$$ (last 3' nucleoside missing) | 2.25 score 0-7
RNA1{[moe]([m5C])[sp].[moe](T)p.[moe](T)p.[moe](G)p.[moe](T)p.d(T)[sp].d(G)[sp].d(T)[sp].d(T)[sp].d(G)[sp].d(T)[sp].d(T)[sp].d(T)[sp].d(A)[sp].d([m5C])[sp].[moe](A)p.[moe](T)p.[moe](T)[sp].[moe](A)}$$$$ (last 3' nucleoside missing) | 3 score 0-7
